Laboratory results as given in the supplement of paper PMC10627819.

Assays:
[1] = tested on: B. subtilis 168; test: fitness (endpoint OD595 vs no drug) (fraction); higher = more growth
Method in brief: (§1)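 Fitness is computed from the optical density at which cultures reach stationary phase, divided by the robust mean of no-drug control wells. Any value above 1 is set to 1. Cultures started at OD595 0.01 in 384-well plates with TSB, LB Lennox or CY at 37 °C, and OD595 was read every 30 min for 14 h against a first-reading background.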

[2] = tested on: S. aureus Newman; test: as above; details: one replicate
Method in brief: as §1

[3] = tested on: B. subtilis 168; test: Bliss interaction score (quartile over a dose matrix) (fitness difference); higher = more antagonism (negative = synergy)
Method in brief: (§2)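 Fitness here means normalised growth, inferred for single drugs from the combination data. Growth was OD595 at entry into stationary phase, divided by the plate's robust no-drug mean and capped at 1. The Bliss score is observed minus expected fitness, with the expectation being the product, and its quartiles span technical, biological and donor/recipient replicates.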

[4] = tested on: S. aureus DSM 20231; test: as above
Method in brief: as §2

[5] = tested on: S. aureus Newman; test: as above
Method in brief: as §2

[6] = tested on: S. pneumoniae D39V; test: as above
Method in brief: as §2
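Throughout, for Bliss interaction score (quartile over a dose matrix): first quartile when negative (synergy) and third quartile when positive (antagonism).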
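Throughout, for fitness (endpoint OD595 vs no drug): OD595 on entry to stationary phase over no-drug wells; at most 1.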

CO/N=C(\C(=O)N[C@@H]1C(=O)N2C(C(=O)O)=C(COC(N)=O)CS[C@H]12)c1ccco1 [Cefuroxime] + Cc1onc(-c2ccccc2)c1C(=O)N[C@@H]1C(=O)N2[C@@H]1SC(C)(C)[C@@H]2C(=O)O [Oxacillin]
fitness, [1], one replicate
Details | partner 0.002 µg/mL | partner 0.004 µg/mL | partner 0.0078 µg/mL | partner 0.008 µg/mL | partner 0.0155 µg/mL | partner 0.031 µg/mL | partner 0.075 µg/mL | partner 0.15 µg/mL | partner 0.3 µg/mL
first compound 0.04875 µg/mL | 0.882 | 0.858 | 0.556 | 0.979 | 0.507 | 0.507 | – | – | –
first compound 0.0975 µg/mL | 0.734 | 0.866 | 0.506 | 0.881 | 0.454 | 0.486 | – | – | –
first compound 0.195 µg/mL | 0.739 | 0.705 | 0.375 | 0.717 | 0.344 | 0.367 | 0.0418 | 0.0405 | 0.0333
first compound 0.39 µg/mL | – | – | – | – | – | – | 0.0582 | 0.0174 | 0.0294
first compound 0.78 µg/mL | – | – | – | – | – | – | 0.0387 | 0.0089 | 0.0244
first compound 1.562 µg/mL | 0.239 | 0.138 | – | 0.111 | – | – | – | – | –
first compound 3.125 µg/mL | 0.137 | 0.129 | – | 0.0905 | – | – | – | – | –
first compound 6.25 µg/mL | 0.11 | 0.1 | – | 0.0957 | – | – | – | – | –

fitness, [2]
Details | first compound 0.04875 µg/mL | first compound 0.0975 µg/mL | first compound 0.195 µg/mL
partner 0.0156 µg/mL | 0.813 | 0.766 | 0.754
partner 0.0312 µg/mL | 0.714 | 0.671 | 0.694
partner 0.0625 µg/mL | 0.447 | 0.436 | 0.323

Details | Bliss interaction score
[3] | -0.0556
[4] | 0.0493
[5] | -0.0271
[6] | -0.115

CO/N=C(\C(=O)N[C@@H]1C(=O)N2C(C(=O)O)=C(COC(N)=O)CS[C@H]12)c1ccco1 [Cefuroxime] + CC1=C(C(=O)O)N2C(=O)[C@@H](NC(=O)[C@H](N)c3ccccc3)[C@H]2SC1 [Cephalexin]
fitness, [1], one replicate
Details | first compound 0.04875 µg/mL | first compound 0.0975 µg/mL | first compound 0.195 µg/mL | first compound 1.562 µg/mL | first compound 3.125 µg/mL | first compound 6.25 µg/mL
partner 0.125 µg/mL | 0.871 | 0.73 | 0.654 | 0.31 | 0.24 | 0.218
partner 0.25 µg/mL | – | – | – | 0.236 | 0.238 | 0.197
partner 0.5 µg/mL | – | – | – | 0.24 | 0.179 | 0.109
partner 1 µg/mL | 0.545 | 0.533 | 0.354 | – | – | –

fitness
Details | first compound 0.04875 µg/mL | first compound 0.0975 µg/mL | first compound 0.195 µg/mL
[1], partner 0.25 µg/mL | 0.709 | 0.683 | 0.507
[1], partner 0.5 µg/mL | 0.729 | 0.706 | 0.527
[2], partner 0.5 µg/mL | 0.925 | 0.883 | 0.943
[2], partner 1 µg/mL | 0.99 | 0.917 | 0.941
[2], partner 2 µg/mL | ≥ 1 | 0.967 | 0.949

Details | Bliss interaction score
[3] | -0.0402
[4] | 0.0711
[5] | -0.0321
[6] | 0.0313
